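96-well plates; 48 h exposure; 5 concentrations. Endpoints by linear interpolation between flanking doses. Not reached: highest tested concentration assigned. The concentration for 50% growth inhibition is given as GI50. The concentration for full growth arrest is given as TGI.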
Assays:
Test in all cases: NCI tumour cell line growth inhibition, 48 h; in the data active = GI50 below about 0.43 µM; inactive = the rest
[1] = system: 786-0 renal
[2] = system: A498 renal
[3] = system: A549 NSCLC
[4] = system: ACHN renal
[5] = system: BT-549 breast
[6] = system: CAKI-1 renal
[7] = system: CCRF-CEM leukemia
[8] = system: COLO 205 colon
[9] = system: DU-145 prostate
[10] = system: EKVX NSCLC
[11] = system: HCC-2998 colon
[12] = system: HCT-116 colon
[13] = system: HCT-15 colon
[14] = system: HOP-62 NSCLC
[15] = system: HOP-92 NSCLC
[16] = system: K-562 leukemia
[17] = system: KM12 colon
[18] = system: LOX IMVI melanoma
[19] = system: M14 melanoma
[20] = system: MCF7 breast
[21] = system: MDA-MB-231 breast
[22] = system: MDA-MB-435
[23] = system: MOLT-4 leukemia
[24] = system: NCI-H226 lung
[25] = system: NCI-H23 lung
[26] = system: NCI-H460 lung
[27] = system: NCI/ADR-RES ovarian
[28] = system: OVCAR-3 ovarian
[29] = system: OVCAR-4 ovarian
[30] = system: OVCAR-5 ovarian
[31] = system: PC-3 prostate
[32] = system: RPMI-8226 leukemia
[33] = system: RXF 393 renal
[34] = system: SF-268 CNS
[35] = system: SF-295 CNS
[36] = system: SK-MEL-2 melanoma
[37] = system: SK-MEL-28 melanoma
[38] = system: SK-MEL-5 melanoma
[39] = system: SK-OV-3 ovarian
[40] = system: SNB-19 CNS
[41] = system: SNB-75 CNS
[42] = system: SW-620 colon
[43] = system: T-47D breast
[44] = system: TK-10 renal
[45] = system: U251 CNS
[46] = system: UACC-257 melanoma
[47] = system: UACC-62 melanoma
[48] = system: UO-31 renal
[49] = system: HL-60(TB) leukemia
[50] = system: HT29 colon
[51] = system: IGROV1 ovarian
[52] = system: NCI-H522 lung
[53] = system: OVCAR-8 ovarian
[54] = system: SF-539 CNS
[55] = system: SN12C renal
[56] = system: SR leukemia

Cc1ccc(C2c3c(n(C)c(=O)n(C)c3=O)OC(N(C)C)(N(C)C)C2(F)F)cc1 (configuration not stated)
> 100 µM: TGI [1] | TGI [2] | TGI [3] | TGI [4] | TGI [5] | TGI [6] | TGI [7] | TGI [8] | TGI [9] | TGI [10] | TGI [11] | TGI [12] | TGI [13] | TGI [14] | TGI [15] | TGI [16] | TGI [17] | TGI [18] | TGI [19] | TGI [20] | TGI [21] | TGI [22] | TGI [23] | TGI [24] | TGI [25] | TGI [26] | TGI [27] | TGI [28] | TGI [29] | TGI [30] | TGI [31] | TGI [32] | TGI [33] | TGI [34] | TGI [35] | TGI [36] | TGI [37] | TGI [38] | TGI [39] | TGI [40] | TGI [41] | TGI [42] | TGI [43] | TGI [44] | TGI [45] | TGI [46] | TGI [47] | TGI [48]

Cc1c(C(N)=O)sc2c1c(=O)n(Cc1ccccc1)c1nnc(SCC(=O)Nc3ccc(Cl)cc3)n21
7.78 µM: TGI [1]
24 µM: TGI [38]
6.33 µM: TGI [54]
> 100 µM: TGI [2] | TGI [4] | TGI [5] | TGI [6] | TGI [7] | TGI [8] | TGI [9] | TGI [10] | TGI [11] | TGI [13] | TGI [49] | TGI [50] | TGI [51] | TGI [16] | TGI [17] | TGI [18] | TGI [19] | TGI [20] | TGI [22] | TGI [23] | TGI [26] | TGI [52] | TGI [27] | TGI [30] | TGI [53] | TGI [31] | TGI [34] | TGI [36] | TGI [39] | TGI [55] | TGI [40] | TGI [42] | TGI [46] | TGI [47] | TGI [48]
19.4 µM: TGI [21]
10.7 µM: TGI [25]
15.1 µM: TGI [43]
15.5 µM: TGI [14]
73.8 µM: TGI [35]
4.85 µM: TGI [12]
14 µM: TGI [56]
inactive: GI50 [1] 2460 nM | GI50 [2] 2510 nM | GI50 [4] > 100 µM | GI50 [5] 3.65 µM | GI50 [6] > 100 µM | GI50 [7] 25.1 µM | GI50 [8] 6.99 µM | GI50 [9] > 100 µM | GI50 [10] 18.1 µM | GI50 [11] 5.56 µM | GI50 [12] 1950 nM | GI50 [13] > 100 µM | GI50 [49] > 100 µM | GI50 [14] 3.71 µM | GI50 [50] > 100 µM | GI50 [51] 28 µM | GI50 [16] 12.6 µM | GI50 [17] 15.5 µM | GI50 [18] 5.45 µM | GI50 [19] 4.63 µM | GI50 [20] 6.61 µM | GI50 [21] 3.81 µM | GI50 [22] > 100 µM | GI50 [23] > 100 µM | GI50 [24] 5.8 µM | GI50 [25] 2780 nM | GI50 [26] 3.28 µM | GI50 [52] 4.12 µM | GI50 [27] > 100 µM | GI50 [30] > 100 µM | GI50 [53] 4.03 µM | GI50 [31] 3.3 µM | GI50 [34] 8.05 µM | GI50 [35] 4.71 µM | GI50 [54] 2530 nM | GI50 [36] > 100 µM | GI50 [38] 4.89 µM | GI50 [39] 3.37 µM | GI50 [55] > 100 µM | GI50 [40] 63.5 µM | GI50 [56] 3.19 µM | GI50 [42] > 100 µM | GI50 [43] 3.52 µM | GI50 [45] 4.14 µM | GI50 [46] 3.44 µM | GI50 [47] 9.26 µM | GI50 [48] > 100 µM
46.2 µM: TGI [24]
19.5 µM: TGI [45]

Reference: PubChem BioAssay (NCI)
